Source: ChEMBL document CHEMBL3856232, “Synthesis and biological evaluation of novel 2-imino-4-thiazolidinone derivatives as potent anti-cancer agents” (Bioorg Med Chem Lett, 2016)
The source made the active and inactive calls. The calls are words filed in the database; no cut-off is given here.

What was measured:
[1] = Cell cycle arrest in mouse B16F10 cells assessed as accumulation in sub G0/G1 phase at 50 uM after 24 hrs by propidium iodide staining based FACS analysis; format: functional; conditions: B16-F10
B16-F10 [2] = experiment: Induction of apoptosis in mouse B16F10 cells assessed as DNA damage at 50 uM after 24 hrs by propidium iodide/Hoechst staining based FACS analysis; format: functional, cell-based
[3] = (§1) Cytotoxicity against mouse B16F10 cells assessed as reduction in cell viability after 48 hrs by MTT assay; format: functional, cell-based; conditions: B16-F10, 48 h
[4] = Cell cycle arrest in mouse B16F10 cells assessed as decrease in G0/G1 phase at 50 uM after 24 hrs by propidium iodide staining based FACS analysis; format: functional; conditions: B16-F10
[5] = Cytotoxicity against CHO cells assessed as reduction in cell viability up to 100 uM after 48 hrs by MTT assay; format: toxicity, cell-based, Cricetulus griseus; conditions: chinese hamster
[6] = Cytotoxicity against human A549 cells assessed as inhibition of cell viability at 4 uM after 48 hrs by MTT assay relative to control; format: functional; conditions: A549, 48 h
[7] = Cytotoxicity against mouse B16F10 cells assessed as inhibition of cell viability at 4 uM after 48 hrs by MTT assay relative to control; format: functional; conditions: B16-F10, 48 h
A549 = experiment: (§2) Cytotoxicity against human A549 cells assessed as reduction in cell viability after 48 hrs by MTT assay; format: functional, cell-based
B16-F10 [8] = experiment: as §1; format: functional, cell-based
[9] = as §2; format: functional, cell-based; conditions: A549, 48 h
[10] = Cytotoxicity against CHO cells assessed as reduction in cell viability up to 10 uM after 48 hrs by MTT assay; format: toxicity, cell-based, Cricetulus griseus; conditions: chinese hamster
[11] = Cytotoxicity against CHO cells assessed as reduction in cell viability at 50 to 100 uM after 48 hrs by MTT assay; format: toxicity, cell-based, Cricetulus griseus; conditions: chinese hamster
B16-F10 [12] = experiment: Induction of intracellular hydrogen peroxide accumulation in mouse B16F10 cells at 50 uM after 24 hrs by DCF-DA staining based fluorescence microscopic analysis; format: functional, cell-based
[13] = Cell cycle arrest in mouse B16F10 cells assessed as accumulation in G2/M phase at 50 uM after 24 hrs by propidium iodide staining based FACS analysis; format: functional; conditions: B16-F10
B16-F10 [14] = experiment: Induction of intracellular superoxide radical accumulation in mouse B16F10 cells at 50 uM by dihydroethidium staining based fluorescence microscopic analysis; format: functional, cell-based
PANC-1 = experiment: Cytotoxicity against human PANC1 cells assessed as reduction in cell viability up to 100 uM after 48 hrs by MTT assay; format: functional, cell-based

| Compound | Activity (A549) | Activity (B16-F10 [8]) | further results |
| --- | --- | --- | --- |
| O=C(CN1CCCC1)Nc1ccc(/N=C2\SCC(=O)N2Cc2cccs2)cc1 |  |  | Activity [1]: Active; Activity (B16-F10 [2]): Active; IC50 [3]: 5.4 µM; Activity [4]: Active; Activity [5]: Non-Toxic |
| COc1cccc2c1C(=O)c1c(O)c3c(c(O)c1C2=O)C[C@@](O)(C(=O)CO)C[C@@H]3O[C@H]1C[C@H](N)[C@H](O)[C@H](C)O1 [DOXORUBICIN] |  |  | inhibition at 4 µM [6]: 28%; inhibition at 4 µM [7]: 40.9% |
| O=C(CN1CCCC1)Nc1ccc(/N=C2\SCC(=O)N2Cc2ccco2)cc1 | Active | Active |  |
| O=C(CN1CCN(c2ccc(F)cc2)CC1)Nc1ccc(/N=C2\SCC(=O)N2Cc2cccs2)cc1 | Active | Active |  |
| O=C(CN1CCSCC1)Nc1ccc(/N=C2\SCC(=O)N2Cc2ccco2)cc1 | Active | Active |  |
| CCN(CC)CC(=O)Nc1ccc(/N=C2\SCC(=O)N2Cc2cccs2)cc1 |  |  | Activity [1]: Active; IC50 [9]: 12.5 µM; Activity (B16-F10 [2]): Active; IC50 [3]: 7 µM; Activity [4]: Active; Activity [5]: Non-Toxic |
| CN1CCN(CC(=O)Nc2ccc(/N=C3\SCC(=O)N3Cc3cccs3)cc2)CC1 | Active | Active |  |
| CN(C)CC(=O)Nc1ccc(/N=C2\SCC(=O)N2Cc2cccs2)cc1 | Active | Active |  |
| N#Cc1ccccc1N1CCN(CC(=O)Nc2ccc(/N=C3\SCC(=O)N3Cc3ccco3)cc2)CC1 | Active | Active |  |
| CCN(CC)CC(=O)Nc1ccc(/N=C2\SCC(=O)N2Cc2ccco2)cc1 | Active | Active |  |
| CCCNCC(=O)Nc1ccc(/N=C2\SCC(=O)N2Cc2cccs2)cc1 |  |  | Activity [10]: Non-Toxic; Activity [11]: Toxic; Activity (B16-F10 [12]): Active; Activity [13]: Active; Activity (B16-F10 [2]): Active; IC50 [3]: 3.4 µM; Activity (B16-F10 [14]): Active |
| O=C(CN1CCOCC1)Nc1ccc(/N=C2\SCC(=O)N2Cc2cccs2)cc1 |  |  | IC50 [9]: 12.6 µM |
| COc1ccccc1N1CCN(CC(=O)Nc2ccc(/N=C3\SCC(=O)N3Cc3ccco3)cc2)CC1 | Active | Active |  |
| O=C(CN1CCN(C(=O)c2ccccc2)CC1)Nc1ccc(/N=C2\SCC(=O)N2Cc2cccs2)cc1 |  |  | IC50 [9]: 10 µM |
| CN(C)CC(=O)Nc1ccc(/N=C2\SCC(=O)N2Cc2ccco2)cc1 | Active | Active |  |
| O=C(CN1CCCCC1)Nc1ccc(/N=C2\SCC(=O)N2Cc2ccco2)cc1 | Active | Active |  |
| O=C(CN1CCCCC1)Nc1ccc(/N=C2\SCC(=O)N2Cc2cccs2)cc1 | Active | Active |  |
| O=C(CN1CCOCC1)Nc1ccc(/N=C2\SCC(=O)N2Cc2ccco2)cc1 | Active | Active |  |
| CCNCC(=O)Nc1ccc(/N=C2\SCC(=O)N2Cc2cccs2)cc1 |  |  | Activity (PANC-1): Active; IC50 [9]: 12.6 µM; IC50 [3]: 11.6 µM |
| O=C(CN1CCN(c2ccccn2)CC1)Nc1ccc(/N=C2\SCC(=O)N2Cc2cccs2)cc1 | Active | Active |  |
| O=C(CN1CCSCC1)Nc1ccc(/N=C2\SCC(=O)N2Cc2cccs2)cc1 |  |  | IC50 [9]: 10 µM |
